Data reported in publication PMC6946680, “Modulation of brain cation-Cl^− cotransport via the SPAK kinase inhibitor ZT-1a” (Nature Communications, 2020).
Values joined by “and” are separate entries in the source; they are usually repeats but may differ in a detail not shown here. Equal entries are not always repeated. “Also recorded” adds a separate entry of the source.

Molecular target: T1, GST–[T233E]SPAK kinase (Homo sapiens, UniProt Q9UEW8, T231E)
T1 construct: made in house; host or cells: E. coli
Assay: SPAK kinase assay with CATCHtide and IC50 determination
Type: biochemical
Conditions: for ZT-1a vs SPAK+MO25, kinase activity: Fig S7b
Source text: II. Experimental procedures
1. Reagents and General methods
Tissue culture reagents were from Life Technologies. P81 phosphocellulose paper was from Whatman […]
and [γ-32P]-ATP was from Perkin Elmer. […] Protein G […]
sepharose was from Amersham. DNA constructs used for transfection were purified from Escherichia coli DH5α using Qiagen or Invitrogen plasmid Maxi kits according to the manufacturer's protocol. All DNA constructs were verified by DNA sequencing.
2. Plasmids, protein expression and purification
DNA clones were from the Division of Signal Transduction Therapy (University of Dundee). The SPAK proteins were expressed in E. Coli and purified as described previously 1.
3. SPAK kinase assays and IC50 determination
SPAK kinase assays employed CATCHtide (cation chloride co-transporter peptide substrate). Peptide kinase assays, performed in triplicate, were set up in a total volume of 50 μl containing 0.5 μg GST– […]
cpm/pmol) and the indicated concentrations of inhibitor dissolved in DMSO. After incubation for 30 min at 30°C, reactions were terminated by spotting 40 μl of the reaction mix onto P81 phosphocellulose paper and immersion in 50 mM phosphoric acid. The papers were washed extensively and incorporation of [γ-32P]ATP into CATCHtide was quantified by Cerenkov counting.
IC50 values were calculated with GraphPad Prism using non-linear regression analysis.
4. Fluorescence polarization […]
concentrations between 0.00001 to 1 mM. Data points are the means of three determinations, with error […]
A Supplemental Fig. 7 Effects of increasing concentrations of ZT-1a on SPAK activity in the absence […]
the absence or presence of five-fold molar excess of wild-type MO25α. b Kinetic data determined for B ZT-1a in the absence or presence of five-fold molar excess of wild-type MO25α. Data are means of […]
presence of wild-type MO25α.

For Cc1cc(C(C#N)c2ccc(Cl)cc2)c(Cl)cc1NC(=O)c1cc(Cl)ccc1O (stereo not shown) [ZT-1a, 5-chloro-N-(5-chloro-4-((4-chlorophenyl)(cyano)methyl)-2-methylphenyl)-2-hydroxybenzamide], the “change of SPAK IC50 values on addition of MO25α” value was “not significantly altered”, the “SPAK kinase activity signal (Fig S3 source data)” value (from here on “SPAK kinase activity signal”) (ATP 0.01 mM, inhibitor 1e-5 uM) was 911 and 899 and 905 and the “SPAK kinase activity signal” value (ATP 0.01 mM, inhibitor 0.0001 uM) was 906 and 879 and 883. For the same compound, the “SPAK kinase activity signal” value (ATP 0.01 mM, inhibitor 0.001 uM) was 901 and 899 and 907, the “SPAK kinase activity signal” value (ATP 0.01 mM, inhibitor 0.003 uM) was 805 and the “SPAK kinase activity signal” value (ATP 0.01 mM, inhibitor 0.03 uM) was 855 and 847 and 825. For the same compound, the “SPAK kinase activity signal” value (ATP 0.01 mM, inhibitor 0.1 uM) was 867 and 893 and 851, the “SPAK kinase activity signal” value (ATP 0.01 mM, inhibitor 0.3 uM) was 813 and 804 and 787 and the “SPAK kinase activity signal” value (ATP 0.01 mM, inhibitor 1 uM) was 756 and 821 and 793. The “SPAK kinase activity signal” value (ATP 0.01 mM, inhibitor 3 uM) was 663 and 688 and 705, the “SPAK kinase activity signal” value (ATP 0.01 mM, inhibitor 10 uM) was 478 and 525 and 503 and the “SPAK kinase activity signal” value (ATP 0.01 mM, inhibitor 100 uM) was 456 and 325 and 371. The “SPAK kinase activity signal” value (ATP 0.01 mM, inhibitor 1000 uM) was 220 and 194 and 213, the “SPAK kinase activity signal” value (ATP 0.1 mM, inhibitor 1e-5 uM) was 902 and 887 and 849 and the “SPAK kinase activity signal” value (ATP 0.1 mM, inhibitor 0.0001 uM) was 867 and 845 and 874. The “SPAK kinase activity signal” value (ATP 0.1 mM, inhibitor 0.001 uM) was 844 and 856 and 837, the “SPAK kinase activity signal” value (ATP 0.1 mM, inhibitor 0.03 uM) was 798 and 815 and 804 and the “SPAK kinase activity signal” value (ATP 0.1 mM, inhibitor 0.1 uM) was 796 and 805 and 782. The “SPAK kinase activity signal” value (ATP 0.1 mM, inhibitor 0.3 uM) was 796 and 786 and 754, the “SPAK kinase activity signal” value (ATP 0.1 mM, inhibitor 1 uM) was 802 and 788 and 766 and the “SPAK kinase activity signal” value (ATP 0.1 mM, inhibitor 3 uM) was 706 and 686 and 718. The “SPAK kinase activity signal” value (ATP 0.1 mM, inhibitor 10 uM) was 561 and 556 and 583, the “SPAK kinase activity signal” value (ATP 0.1 mM, inhibitor 100 uM) was 226 and 309 and 284 and the “SPAK kinase activity signal” value (ATP 0.1 mM, inhibitor 1000 uM) was 187 and 106 and 158. For the same compound, the “SPAK kinase activity signal” value (ATP 1 mM, inhibitor 1e-5 uM) was 880 and 891 and 864, the “SPAK kinase activity signal” value (ATP 1 mM, inhibitor 0.0001 uM) was 892 and 902 and 916 and the “SPAK kinase activity signal” value (ATP 1 mM, inhibitor 0.001 uM) was 869 and 902 and 885. The “SPAK kinase activity signal” value (ATP 1 mM, inhibitor 0.03 uM) was 812 and 786 and 753, the “SPAK kinase activity signal” value (ATP 1 mM, inhibitor 0.1 uM) was 862 and 807 and 759 and the “SPAK kinase activity signal” value (ATP 1 mM, inhibitor 0.3 uM) was 768 and 789 and 736. For the same compound, the “SPAK kinase activity signal” value (ATP 1 mM, inhibitor 1 uM) was 662 and 719 and 681, the “SPAK kinase activity signal” value (ATP 1 mM, inhibitor 3 uM) was 641 and 604 and 563 and the “SPAK kinase activity signal” value (ATP 1 mM, inhibitor 10 uM) was 554 and 604 and 587. The “SPAK kinase activity signal” value (ATP 1 mM, inhibitor 100 uM) was 453 and 345 and 405, the “SPAK kinase activity signal” value (ATP 1 mM, inhibitor 1000 uM) was 222 and 164 and 186 and the “change of SPAK IC50 values with increasing ATP concentration” value (ATP between 0.01 and 1 mM) was “unchanged; also recorded: unaffected by changing [ATP]”. For the same compound, the “ZT-1a vs SPAK+MO25, kinase activity” value (ZT-1a 1e-5 uM) was 401897 C.P.M and 396529 C.P.M and 387112 C.P.M, the “ZT-1a vs SPAK+MO25, kinase activity” value (ZT-1a 0.0001 uM) was 393641 C.P.M and 402385 C.P.M and 384718 C.P.M and the “ZT-1a vs SPAK+MO25, kinase activity” value (ZT-1a 0.001 uM) was 392612 C.P.M and 367664 C.P.M and 337143 C.P.M. The “ZT-1a vs SPAK+MO25, kinase activity” value (ZT-1a 0.003 uM) was 363431 C.P.M and 388438 C.P.M and 371694 C.P.M, the “ZT-1a vs SPAK+MO25, kinase activity” value (ZT-1a 0.01 uM) was 359080 C.P.M and 382836 C.P.M and 362174 C.P.M and the “ZT-1a vs SPAK+MO25, kinase activity” value (ZT-1a 0.03 uM) was 408327 C.P.M and 384102 C.P.M and 373519 C.P.M. The “ZT-1a vs SPAK+MO25, kinase activity” value (ZT-1a 0.1 uM) was 381538 C.P.M and 398205 C.P.M and 371203 C.P.M, the “ZT-1a vs SPAK+MO25, kinase activity” value (ZT-1a 0.3 uM) was 371591 C.P.M and 394205 C.P.M and 361553 C.P.M and the “ZT-1a vs SPAK+MO25, kinase activity” value (ZT-1a 1 uM) was 365869 C.P.M and 359432 C.P.M and 371032 C.P.M. The “ZT-1a vs SPAK+MO25, kinase activity” value (ZT-1a 3 uM) was 354403 C.P.M and 355755 C.P.M and 331937 C.P.M, the “ZT-1a vs SPAK+MO25, kinase activity” value (ZT-1a 10 uM) was 325521 C.P.M and 299490 C.P.M and 282196 C.P.M and the “ZT-1a vs SPAK+MO25, kinase activity” value (ZT-1a 100 uM) was 119789 C.P.M and 97606 C.P.M and 83035 C.P.M. The “ZT-1a vs SPAK+MO25, kinase activity” value (ZT-1a 1000 uM) was 31455 C.P.M and 51772 C.P.M and 49172 C.P.M.
